From ChEMBL document CHEMBL2439971, “Design, synthesis and antiproliferative evaluation of fluorenone analogs with DNA topoisomerase I inhibitory properties” (Bioorg Med Chem, 2013)
Activity calls are given as the source filed them. No cut-off for these calls is given here.

How the values were obtained:
[1] = system: NCI-H322M; experiment: Cytotoxicity against human NCI-H322M cells at 10 uM after 48 hrs by sulforhodamine B assay relative to control; format: functional
[2] = system: MOLT-4; experiment: Cytotoxicity against human MOLT4 cells at 10 uM after 48 hrs by sulforhodamine B assay relative to control; format: functional
[3] = system: HCT-15; experiment: Cytotoxicity against human HCT15 cells at 10 uM after 48 hrs by sulforhodamine B assay relative to control; format: functional
[4] = system: MDA-MB-231; experiment: Cytotoxicity against human MDA-MB-231 cells at 10 uM after 48 hrs by sulforhodamine B assay relative to control; format: functional
[5] = system: OVCAR-4; experiment: Cytotoxicity against human OVCAR4 cells at 10 uM after 48 hrs by sulforhodamine B assay relative to control; format: functional
[6] = system: COLO 205; experiment: Cytotoxicity against human COLO205 cells at 10 uM after 48 hrs by sulforhodamine B assay relative to control; format: functional
[7] = system: SR; experiment: Cytotoxicity against human SR cells at 10 uM after 48 hrs by sulforhodamine B assay relative to control; format: functional
[8] = system: HOP-92; experiment: Cytotoxicity against human HOP92 cells at 10 uM after 48 hrs by sulforhodamine B assay relative to control; format: functional
[9] = system: RPMI-8226; experiment: Cytotoxicity against human RPMI8226 cells at 10 uM after 48 hrs by sulforhodamine B assay relative to control; format: functional
[10] = system: IGROV-1; experiment: Cytotoxicity against human IGROV1 cells at 10 uM after 48 hrs by sulforhodamine B assay relative to control; format: functional
[11] = system: OVCAR-3; experiment: Cytotoxicity against human OVCAR3 cells at 10 uM after 48 hrs by sulforhodamine B assay relative to control; format: functional
[12] = system: SK-MEL-5; experiment: Cytotoxicity against human SK-MEL-5 cells at 10 uM after 48 hrs by sulforhodamine B assay relative to control; format: functional
[13] = Cytotoxicity against human Hs 578T cells at 10 uM after 48 hrs by sulforhodamine B assay relative to control; format: functional
[14] = system: SF-539; experiment: Cytotoxicity against human SF539 cells at 10 uM after 48 hrs by sulforhodamine B assay relative to control; format: functional
[15] = system: NCI-H522; experiment: Cytotoxicity against human NCI-H522 cells at 10 uM after 48 hrs by sulforhodamine B assay relative to control; format: functional
[16] = system: UO-31; experiment: Cytotoxicity against human UO31 cells at 10 uM after 48 hrs by sulforhodamine B assay relative to control; format: functional
[17] = system: HCT-116; experiment: Cytotoxicity against human HCT116 cells at 10 uM after 48 hrs by sulforhodamine B assay relative to control; format: functional
[18] = system: HT-29; experiment: Cytotoxicity against human HT-29 cells at 10 uM after 48 hrs by sulforhodamine B assay relative to control; format: functional
[19] = system: NCI-H226; experiment: Cytotoxicity against human NCI-H226 cells at 10 uM after 48 hrs by sulforhodamine B assay relative to control; format: functional
[20] = system: NCI-H460; experiment: Cytotoxicity against human NCI-H460 cells at 10 uM after 48 hrs by sulforhodamine B assay relative to control; format: functional
[21] = system: SF-268; experiment: Cytotoxicity against human SF268 cells at 10 uM after 48 hrs by sulforhodamine B assay relative to control; format: functional
[22] = system: NCI-H23; experiment: Cytotoxicity against human NCI-H23 cells at 10 uM after 48 hrs by sulforhodamine B assay relative to control; format: functional
[23] = system: SNB-75; experiment: Cytotoxicity against human SNB75 cells at 10 uM after 48 hrs by sulforhodamine B assay relative to control; format: functional
[24] = system: K562; experiment: Cytotoxicity against human K562 cells at 10 uM after 48 hrs by sulforhodamine B assay relative to control; format: functional
[25] = system: UACC-257; experiment: Cytotoxicity against human UACC257 cells at 10 uM after 48 hrs by sulforhodamine B assay relative to control; format: functional
[26] = system: CCRF-CEM; experiment: Cytotoxicity against human CCRF-CEM cells at 10 uM after 48 hrs by sulforhodamine B assay relative to control; format: functional
[27] = system: NCI/ADR-RES; experiment: Cytotoxicity against human NCI/ADR-RES cells at 10 uM after 48 hrs by sulforhodamine B assay relative to control; format: functional
[28] = system: ACHN; experiment: Cytotoxicity against human ACHN cells at 10 uM after 48 hrs by sulforhodamine B assay relative to control; format: functional
[29] = system: OVCAR-5; experiment: Cytotoxicity against human OVCAR5 cells at 10 uM after 48 hrs by sulforhodamine B assay relative to control; format: functional
[30] = system: Malme-3M; experiment: Cytotoxicity against human MALME-3M cells at 10 uM after 48 hrs by sulforhodamine B assay relative to control; format: functional
[31] = system: T47D; experiment: Cytotoxicity against human T47D cells at 10 uM after 48 hrs by sulforhodamine B assay relative to control; format: functional
[32] = system: M14; experiment: Cytotoxicity against human M14 cells at 10 uM after 48 hrs by sulforhodamine B assay relative to control; format: functional
[33] = organism: Homo sapiens; experiment: Inhibition of telomerase (unknown origin) at 10 uM TRAP assay
[34] = system: LOX IMVI; experiment: Cytotoxicity against human LOXIMVI cells at 10 uM after 48 hrs by sulforhodamine B assay relative to control; format: functional
[35] = system: DU-145; experiment: Cytotoxicity against human DU145 cells at 10 uM after 48 hrs by sulforhodamine B assay relative to control; format: functional
[36] = system: PC-3; experiment: Cytotoxicity against human PC3 cells after 48 hrs by sulforhodamine B assay; format: functional, cell-based; conditions: PC-3, 48 h
[37] = system: HL-60(TB); experiment: Cytotoxicity against human HL-60(TB) cells at 10 uM after 48 hrs by sulforhodamine B assay relative to control; format: functional
[38] = system: HCC 2998; experiment: Cytotoxicity against human HCC2998 cells at 10 uM after 48 hrs by sulforhodamine B assay relative to control; format: functional
[39] = system: MCF7; experiment: Cytotoxicity against human MCF7 cells at 10 uM after 48 hrs by sulforhodamine B assay relative to control; format: functional
[40] = system: PC-3; experiment: Cytotoxicity against human PC3 cells at 10 uM after 48 hrs by sulforhodamine B assay relative to control; format: functional
[41] = system: RXF 393; experiment: Cytotoxicity against human RXF393 cells at 10 uM after 48 hrs by sulforhodamine B assay relative to control; format: functional
[42] = system: MDA-MB-435; experiment: Cytotoxicity against human MDA-MB-435 cells at 10 uM after 48 hrs by sulforhodamine B assay relative to control; format: functional
[43] = system: BT-549; experiment: Cytotoxicity against human BT549 cells at 10 uM after 48 hrs by sulforhodamine B assay relative to control; format: functional
[44] = system: SW-620; experiment: Cytotoxicity against human SW620 cells at 10 uM after 48 hrs by sulforhodamine B assay relative to control; format: functional
[45] = system: SK-MEL-2; experiment: Cytotoxicity against human SK-MEL-2 cells at 10 uM after 48 hrs by sulforhodamine B assay relative to control; format: functional
[46] = system: KM12; experiment: Cytotoxicity against human KM12 cells at 10 uM after 48 hrs by sulforhodamine B assay relative to control; format: functional
[47] = system: U-251; experiment: Cytotoxicity against human U251 cells at 10 uM after 48 hrs by sulforhodamine B assay relative to control; format: functional
[48] = system: 786-0; experiment: Cytotoxicity against human 786-0 cells at 10 uM after 48 hrs by sulforhodamine B assay relative to control; format: functional
[49] = system: A549; experiment: Cytotoxicity against human A549 cells at 10 uM after 48 hrs by sulforhodamine B assay relative to control; format: functional
[50] = system: SNB-19; experiment: Cytotoxicity against human SNB19 cells at 10 uM after 48 hrs by sulforhodamine B assay relative to control; format: functional
[51] = system: SK-MEL-28; experiment: Cytotoxicity against human SK-MEL-28 cells at 10 uM after 48 hrs by sulforhodamine B assay relative to control; format: functional
[52] = system: OVCAR-8; experiment: Cytotoxicity against human OVCAR8 cells at 10 uM after 48 hrs by sulforhodamine B assay relative to control; format: functional
[53] = system: MDA-MB-468; experiment: Cytotoxicity against human MDA-MB-468 cells at 10 uM after 48 hrs by sulforhodamine B assay relative to control; format: functional
[54] = system: UACC-62; experiment: Cytotoxicity against human UACC62 cells at 10 uM after 48 hrs by sulforhodamine B assay relative to control; format: functional
[55] = system: SF-295; experiment: Cytotoxicity against human SF295 cells at 10 uM after 48 hrs by sulforhodamine B assay relative to control; format: functional
[56] = system: HOP-62; experiment: Cytotoxicity against human HOP62 cells at 10 uM after 48 hrs by sulforhodamine B assay relative to control; format: functional
[57] = system: CAKI-1; experiment: Cytotoxicity against human CAKI-1 cells at 10 uM after 48 hrs by sulforhodamine B assay relative to control; format: functional
[58] = Cytotoxicity against human EKVX cells at 10 uM after 48 hrs by sulforhodamine B assay relative to control; format: functional
[59] = system: TK-10; experiment: Cytotoxicity against human TK10 cells at 10 uM after 48 hrs by sulforhodamine B assay relative to control; format: functional
[60] = system: SN12C; experiment: Cytotoxicity against human SN12C cells at 10 uM after 48 hrs by sulforhodamine B assay relative to control; format: functional

CN1CCN(CC(=O)Nc2ccc3c(c2)C(=O)c2cc(NC(=O)CN4CCN(C)CC4)ccc2-3)CC1
Activity [1]: 97.25%
Activity [2]: 96.58%
Activity [3]: 106.48%
Activity [4]: 108.13%
Activity [5]: 111.66%
Activity [6]: 102.69%
Activity [7]: 105.62%
Activity [8]: 93.88%
Activity [9]: 106.31%
Activity [10]: 110.15%
Activity [11]: 125.59%
Activity [12]: 103.25%
Activity [13]: 107.34%
Activity [14]: 107.96%
Activity [15]: 90.02%
Activity [16]: 89.84%
Activity [17]: 94.2%
Activity [18]: 95.51%
Activity [19]: 106.03%
Activity [20]: 108.46%
Activity [21]: 115.79%
Activity [22]: 99.17%
Activity [23]: 87.76%
Activity [24]: 104.58%
Activity [25]: 133.36%
Activity [26]: 98.38%
Activity [27]: 102.76%
Activity [28]: 111.9%
Activity [29]: 119.06%
Activity [30]: 115.66%
Activity [31]: 103.63%
Activity [32]: 106.48%
inhibition [33]: inactive
Activity [34]: 96.76%
Activity [35]: 117.23%
IC50 [36]: > 30 µM
Activity [37]: 100.43%
Activity [38]: 98.62%
Activity [39]: 95.17%
Activity [40]: 101.32%
Activity [41]: 110.09%
Activity [42]: 95.92%
Activity [43]: 110.6%
Activity [44]: 103.43%
Activity [45]: 119.93%
Activity [46]: 108.52%
Activity [47]: 97.19%
Activity [48]: 102.26%
Activity [49]: 106.99%
Activity [50]: 101.36%
Activity [51]: 97.75%
Activity [52]: 111.5%
Activity [53]: 98.39%
Activity [54]: 110.11%
Activity [55]: 93.37%
Activity [56]: 111.05%
Activity [57]: 92.75%
Activity [58]: 100.31%
Activity [59]: 106.54%
Activity [60]: 100.48%

O=C(CCN1CCOCC1)Nc1ccc2c(c1)C(=O)c1cc(NC(=O)CCN3CCOCC3)ccc1-2
Activity [1]: 109.97%
Activity [2]: 94.98%
Activity [3]: 108.42%
Activity [4]: 122.26%
Activity [5]: 105.22%
Activity [6]: 105.48%
Activity [7]: 98.5%
Activity [9]: 99.87%
Activity [10]: 95.95%
Activity [11]: 121.23%
Activity [12]: 102.76%
Activity [13]: 101.67%
Activity [14]: 107.54%
Activity [15]: 102.66%
Activity [16]: 86.58%
Activity [17]: 114.57%
Activity [18]: 111.58%
Activity [19]: 109.63%
Activity [20]: 105.97%
Activity [21]: 115.57%
Activity [22]: 94.62%
Activity [23]: 82.97%
Activity [24]: 99.03%
Activity [25]: 113.13%
Activity [26]: 92.01%
Activity [27]: 102.84%
Activity [28]: 101.15%
Activity [29]: 103.99%
Activity [30]: 118.44%
Activity [31]: 101.34%
Activity [32]: 127.51%
inhibition [33]: inactive
Activity [34]: 89.4%
Activity [35]: 117.55%
IC50 [36]: > 30 µM
Activity [37]: 112.24%
Activity [38]: 100.06%
Activity [39]: 88.76%
Activity [40]: 113.85%
Activity [41]: 99.09%
Activity [42]: 104.2%
Activity [43]: 113.53%
Activity [44]: 106.16%
Activity [45]: 131.96%
Activity [46]: 105.8%
Activity [47]: 94.41%
Activity [48]: 110.24%
Activity [49]: 98.13%
Activity [50]: 110.22%
Activity [51]: 104.41%
Activity [52]: 103.76%
Activity [53]: 101.73%
Activity [54]: 122.9%
Activity [55]: 105.19%
Activity [56]: 115.73%
Activity [57]: 96.99%
Activity [58]: 99.88%
Activity [59]: 112.26%
Activity [60]: 104.8%
